Test results as given in PubChem BioAssay (NCI).
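Tested at 5 concentrations; 48 h exposure; 96-well plates; endpoints linearly interpolated, else capped at highest concentration. Here, GI50 denotes the concentration required for 50% inhibition of growth. TGI: total growth inhibition.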

Legend:
Assay in all cases: NCI tumour cell line growth inhibition, 48 h
[1] = test system: LOX IMVI melanoma
[2] = test system: HOP-92 NSCLC
[3] = test system: HOP-62 NSCLC
[4] = test system: ACHN renal
[5] = test system: SK-MEL-5 melanoma
[6] = test system: NCI-H23 lung
[7] = test system: UO-31 renal
[8] = test system: RXF 393 renal
[9] = test system: SW-620 colon
[10] = test system: COLO 205 colon

Compound	GI50 [1]	TGI [1]	GI50 [2]	TGI [2]	GI50 [3]	TGI [3]	GI50 [4]	TGI [4]	GI50 [5]	TGI [5]	GI50 [6]	TGI [6]	GI50 [7]	TGI [7]	GI50 [8]	TGI [8]	GI50 [9]	TGI [9]	GI50 [10]	TGI [10]
CCOC(=O)C#Cc1c(CC(=O)OCC)nnn1[C@H]1O[C@@H](CO)[C@@H]2OC(C)(C)O[C@@H]21	1.35 µM	2.97 µM	3 µM	6.94 µM	18.2 µM	34.2 µM	1.97 µM	4.11 µM	15 µM	28.4 µM	13.6 µM	30.5 µM	2.82 µM	10.3 µM	1.69 µM	3.32 µM	1.88 µM	3.78 µM	2.05 µM	4.06 µM
C/C=C/C=C\C1OC(O)([C@H](CC)C(=O)NC/C=C/C=C(\C)[C@H](OC)C(C)C2OC(\C=C/C=C/C=C(\C)C(=O)c3c(O)ccn(C)c3=O)[C@H](O)[C@@H]2O)C(O)C(O)C1(C)C (some centres not stated)		> 100 µM		> 100 µM		> 100 µM		> 100 µM		> 100 µM		> 100 µM		> 100 µM		> 100 µM		> 100 µM		> 100 µM
COC(=O)C(CC(=O)Nc1ccc(Cl)c(Cl)c1)C(=O)C(=O)NC1C2CC3CC(C2)CC1C3 (configuration not stated)		> 100 µM		> 100 µM		> 100 µM		> 100 µM		> 100 µM		> 100 µM		> 100 µM		> 100 µM		> 100 µM		> 100 µM
N#CC(C#N)=C1SCC(=O)CS1		> 100 µM		> 100 µM		> 100 µM				> 100 µM		> 100 µM		> 100 µM		> 100 µM		> 100 µM		> 100 µM
C[C@@H]1C[C@@]2(O[C@@H]2C)C(=O)O[C@@H]2CCN3CC=C(COC(=O)[C@]1(C)O)[C@H]23		> 100 µM		> 100 µM				> 100 µM		> 100 µM		> 100 µM		> 100 µM				> 100 µM		> 100 µM
Clc1nc(Cl)c(Cc2ccccc2)c(Cl)n1		> 100 µM				20.4 µM		32 µM		8.39 µM		37.5 µM		33.2 µM		11.1 µM		> 100 µM		22.6 µM
N#Cc1nc2cc(F)c(F)cc2nc1-c1ccc(Cl)cc1	1.32 µM	2.68 µM	0.0614 µM	15 µM	45 µM	> 100 µM	10.4 µM	43.8 µM	14.4 µM	40.6 µM	7.92 µM	33.9 µM	12.2 µM	38.1 µM	6.23 µM	18.3 µM	16 µM	50.1 µM	26.9 µM	> 100 µM
O=C(N/C(=C\c1ccc(Oc2ccc(Cl)c(Cl)c2)cc1)c1nc2ccccc2[nH]1)c1ccccc1				23.5 µM				50.9 µM		30.4 µM		27.7 µM		27.6 µM		28.1 µM		33.7 µM		58 µM
COc1ccc2nc(C)cc(Nc3ccccc3O)c2c1	18.5 µM	39 µM	10.9 µM	61.2 µM	49.3 µM	> 100 µM	32.1 µM	> 100 µM	15.4 µM	30.4 µM	38.5 µM	> 100 µM	21.2 µM	> 100 µM			26.7 µM	> 100 µM	18.3 µM	36.5 µM
C/C(=C\CC[C@]1(C)OC(C)(C)OC1CC/C(C)=C/CO[Si](c1ccccc1)(c1ccccc1)C(C)(C)C)CC/C=C/CO[Si](C)(C)C(C)(C)C (some centres not stated)		> 100 µM		> 100 µM		> 100 µM		> 100 µM		> 100 µM		> 100 µM		> 100 µM		> 100 µM		> 100 µM		
O=C(/C=C1/NC(=O)CS1)Nc1ccccc1				> 100 µM		> 100 µM				> 100 µM		> 100 µM		> 100 µM		> 100 µM		> 100 µM		> 100 µM
O=C1C[C@H]2CC3(CC[C@H]2CN1)OCCO3		> 100 µM		> 100 µM		> 100 µM				> 100 µM		> 100 µM		> 100 µM		> 100 µM		> 100 µM		> 100 µM
CCCN(CCC)C(=O)[C@H](CC)[C@@H]1CC[C@@H](C)[C@@H]([C@H](C)[C@@H](O)[C@@H](C)C(=O)[C@H](CC)C2O[C@]3(C=C[C@@H](O)[C@]4(CC[C@@](C)([C@H]5CC[C@](O)(CC)[C@H](C)O5)O4)O3)[C@H](C)C[C@@H]2C)O1 (some centres not stated)	1.5 µM	3 µM	1.29 µM	4.24 µM	3.33 µM	13.6 µM	3.18 µM	10.3 µM	1.73 µM	3.16 µM	2.52 µM	7.01 µM	2.12 µM	7.03 µM	1.71 µM	4.04 µM	3.23 µM	10.6 µM		
COc1ccc(/C=C/C(=O)c2cc3c(N)c(C(=O)Nc4ccccc4)sc3nc2C)cc1	0.332 µM	2.77 µM	1.17 µM	14 µM	0.252 µM	> 22.5 µM	0.344 µM	> 23 µM	0.136 µM	0.862 µM	0.227 µM		0.688 µM	20.1 µM	0.114 µM	2.31 µM	0.216 µM	11.7 µM		
Cc1cccc2c1C(=O)OC2(C)c1cccc2ccccc12 (configuration not stated)		> 100 µM		61.4 µM				> 100 µM		45.3 µM		> 100 µM		> 100 µM		84.6 µM		> 100 µM		
COc1cc(-c2oc3c(OC)c(O)c(OC)c(O)c3c(=O)c2OC)ccc1O		> 100 µM				61.4 µM		> 100 µM		> 100 µM		> 100 µM		85.2 µM				> 100 µM		> 100 µM
O=C1/C(=C/c2ccc(Cl)cc2)COc2ccc(O)c(O)c21	0.33 µM	1.36 µM	2.01 µM	8.77 µM			1.14 µM	2.36 µM	1.51 µM	2.9 µM	1.71 µM	4.09 µM	0.458 µM	1.84 µM	1.34 µM	2.75 µM	0.838 µM	2.94 µM	1.79 µM	3.31 µM
